Ratio data for one compound are collected here from ChEMBL document CHEMBL1153476, “Novel mannosyl derivatives of peptidoglycan monomer: Synthesis and biological evaluation of immunomodulatory properties” (2009).

In this test the test system is Mus musculus. Kind of test: Immunostimulatory activity against ovalbumin-stimulated immune response in mouse serum assessed as ratio of IgG1 to IgG2a at 200 ug, sc measured after 7 days by ELISA. It is filed as functional.

Each structure is given as a SMILES string.

Regarding `CC(=O)N[C@@H]1[C@@H](O[C@H](C)C(=O)N[C@@H](C)C(=O)N[C@H](CCC(=O)N[C@H](CCC[C@H](N)C(N)=O)C(=O)N[C@H](C)C(=O)N[C@H](C)C(=O)O)C(N)=O)[C@H](O[C@@H]2O[C@H](CO)[C@@H](O)[C@H](O)[C@H]2NC(C)=O)[C@@H](CO)O[C@H]1O`, the Ratio is on record as 2.6.
